Tests used:
[1] = pH of acidic solution of the substance by itself; assay type: physicochemical; conditions: used by itself, unbuffered
skin = experiment: application to skin, detrimental skin effects; assay type: in vivo
Text: The low pKa results in an acidic solution having a pH of about 1.9, which damages skin and results in skin peeling in the hours and/or days following application to skin.
The pH of skin is about 5.5. When the pH of the skin surface is less than about 3.8, skin peeling results. Additionally, side effects of skin adjusted to a pH of less than about 3.8 include: skin inflammation, dermatitis, itching, and/or sensitizing of the skin.

pH of acidic solution [1]: about 1.9
effect on skin (skin; used by itself, hours and/or days following application to skin): acts as a skin peeler
SMILES: CC(=O)Oc1ccccc1C(=O)O [acetylsalicyclic acid]
detrimental effects on skin (skin; in a composition having a pH of about 3.8 or less): an acid burn of the skin, inflammation, itching, sensitizing, dermatitis, and/or skin peeling

From patent US20110200545A1, “DEODORANT COMPOSITION AND METHODS FOR USE THEREOF” (priority 2010, published 2011)
